Source: ChEMBL document CHEMBL1147199, “Exploration of the correlation between the structure, hemolytic activity, and cytotoxicity of steroid saponins” (Bioorg Med Chem, 2007)

Columns and labels:
Format in all cases: cell-based, Erythrocyte
[1] = Cytotoxicity against human erythrocytes assessed as hemolytic activity after 60 mins; details: read-out: HD50
[2] = Cytotoxicity against human erythrocytes assessed as hemolytic activity at 40 ug/ml after 60 mins; details: read-out: Activity
[3] = Cytotoxicity against human erythrocytes assessed as hemolytic activity at 100 ug/ml after 60 mins; details: for Activity: erythrocyte, 1 h
[4] = Cytotoxicity against human erythrocytes assessed as hemolytic activity at 75 ug/ml after 60 mins
[5] = Cytotoxicity against human erythrocytes assessed as hemolytic activity at 30 ug/ml after 60 mins; details: read-out: Activity
[6] = Cytotoxicity against human erythrocytes assessed as hemolytic activity at 50 ug/ml after 60 mins; details: read-out: Activity

| SMILES | HC50 at 1 h [1] | also measured |
| --- | --- | --- |
| C[C@@H]1CC[C@@]2(OC1)O[C@H]1C[C@H]3[C@@H]4CC=C5C[C@@H](O[C@@H]6O[C@H](CO)[C@@H](O)[C@H](O[C@@H]7O[C@@H](C)[C@H](O)[C@@H](O)[C@H]7O)[C@H]6O)CC[C@]5(C)[C@H]4CC[C@]3(C)[C@H]1[C@@H]2C [POLYPHILLIN C] | > 40 µM | hemolysis at 1 h, 40 ug/ml [2]: 15% |
| CO[C@]1(CCC(C)CS[C@@H]2O[C@H](CO)[C@@H](O)[C@H](O)[C@H]2O)O[C@H]2C[C@H]3[C@@H]4CC=C5C[C@@H](O[C@@H]6O[C@H](CO)[C@@H](O[C@H]7O[C@H](C)[C@@H](O)[C@H](O)[C@@H]7O)[C@H](O)[C@H]6O[C@H]6O[C@H](C)[C@@H](O)[C@H](O)[C@@H]6O)[C@H](O)C[C@]5(C)[C@H]4CC[C@]3(C)[C@H]2[C@@H]1C (some centres not stated) | > 100 µM | Activity [3]: Not Active |
| CC(=O)OC[C@H]1O[C@@H](O[C@H]2CC[C@@]3(C)C(=CC[C@H]4[C@@H]5C[C@@H]6O[C@]7(CC[C@@H](C)CO7)[C@@H](C)[C@@H]6[C@@]5(C)CC[C@@H]43)C2)[C@H](O[C@@H]2O[C@@H](C)[C@H](O)[C@@H](O)[C@H]2O)[C@@H](O)[C@@H]1O | > 75 µM | hemolysis at 1 h, 75 ug/ml ([4]; human, human erythrocytes, read-out: Activity): 29% |
| CCCCCCCCCCCCCCCC(=O)O[C@H]1C[C@@H]2[C@H](CC[C@]3(C)[C@@H]4[C@H](C[C@@H]23)O[C@]2(CC[C@@H](C)CO2)[C@H]4C)[C@@]2(C)C[C@@H](O)[C@H](O[C@@H]3O[C@H](CO)[C@@H](O[C@H]4O[C@H](C)[C@@H](O)[C@H](O)[C@@H]4O)[C@H](O)[C@H]3O[C@H]3O[C@H](C)[C@@H](O)[C@H](O)[C@@H]3O)C[C@H]12 | > 100 µM | Activity [3]: Not Active |
| C[C@@H]1CC[C@@]2(OC1)O[C@H]1C[C@H]3[C@@H]4CC=C5C[C@@H](O[C@@H]6O[C@H](CO)[C@@H](O)[C@H](O)[C@H]6O)CC[C@]5(C)[C@H]4CC[C@]3(C)[C@H]1[C@@H]2C [DISOGLUSIDE] | > 100 µM | Activity [3]: Not Active |
| CO[C@]1(CCC(C)CO[C@@H]2O[C@H](CO)[C@@H](O)[C@H](O)[C@H]2O)O[C@H]2C[C@H]3[C@@H]4CC=C5C[C@@H](O[C@@H]6O[C@H](CO)[C@@H](O[C@H]7O[C@H](C)[C@@H](O)[C@H](O)[C@@H]7O)[C@H](O)[C@H]6O[C@H]6O[C@H](C)[C@@H](O)[C@H](O)[C@@H]6O)[C@H](O)C[C@]5(C)[C@H]4CC[C@]3(C)[C@H]2[C@@H]1C (some centres not stated) | > 100 µM | Activity [3]: Not Active |
| CCCCCCCCCCCC(=O)O[C@H]1C[C@@H]2[C@H](CC[C@]3(C)[C@@H]4[C@H](C[C@@H]23)O[C@]2(CC[C@@H](C)CO2)[C@H]4C)[C@@]2(C)C[C@@H](O)[C@H](O[C@@H]3O[C@H](CO)[C@@H](O[C@H]4O[C@H](C)[C@@H](O)[C@H](O)[C@@H]4O)[C@H](O)[C@H]3O[C@H]3O[C@H](C)[C@@H](O)[C@H](O)[C@@H]3O)C[C@H]12 | > 100 µM | hemolysis at 1 h, 100 ug/ml ([3]; human erythrocytes, read-out: Activity): 8.5% |
| CC(=O)O[C@H]1C[C@@H]2[C@H](CC[C@]3(C)[C@@H]4[C@H](C[C@@H]23)O[C@]2(CC[C@@H](C)CO2)[C@H]4C)[C@@]2(C)C[C@@H](O)[C@H](O[C@@H]3O[C@H](CO)[C@@H](O[C@H]4O[C@H](C)[C@@H](O)[C@H](O)[C@@H]4O)[C@H](O)[C@H]3O[C@H]3O[C@H](C)[C@@H](O)[C@H](O)[C@@H]3O)C[C@H]12 | > 30 µM | hemolysis at 1 h, 30 ug/ml [5]: 34% |
| C[C@@H]1CC[C@@]2(OC1)O[C@H]1C[C@H]3[C@@H]4CC=C5C[C@@H](O[C@@H]6O[C@H](CNC(=O)C(F)(F)F)[C@@H](O[C@H]7O[C@H](C)[C@@H](O)[C@H](O)[C@@H]7O)[C@H](O)[C@H]6O[C@H]6O[C@H](C)[C@@H](O)[C@H](O)[C@@H]6O)CC[C@]5(C)[C@H]4CC[C@]3(C)[C@H]1[C@@H]2C | 18.5 µM | – |
| CC(=O)O[C@@H]1[C@@H](O)[C@@H](O)[C@H](OC[C@H]2O[C@@H](O[C@H]3CC[C@@]4(C)C(=CC[C@H]5[C@@H]6C[C@@H]7O[C@]8(CC[C@@H](C)CO8)[C@@H](C)[C@@H]7[C@@]6(C)CC[C@@H]54)C3)[C@H](O)[C@@H](O)[C@@H]2O)O[C@H]1C | > 50 µM | hemolysis at 1 h, 50 ug/ml [6]: 12% |
| C[C@@H]1CC[C@@]2(OC1)O[C@H]1C[C@H]3[C@@H]4CC=C5C[C@@H](O[C@@H]6O[C@H](CO)[C@@H](O[C@H]7O[C@H](C)[C@@H](OCCN=[N+]=[N-])[C@H](O)[C@@H]7O)[C@H](O)[C@H]6O[C@H]6O[C@H](C)[C@@H](O)[C@H](O)[C@@H]6O)CC[C@]5(C)[C@H]4CC[C@]3(C)[C@H]1[C@@H]2C | 9.7 µM | – |
| C[C@@H]1CC[C@@]2(OC1)O[C@H]1C[C@H]3[C@@H]4CC=C5C[C@@H](O[C@@H]6O[C@H](CO)[C@@H](O[C@H]7O[C@H](C)[C@@H](OCCNC(=O)COc8ccc(Cl)cc8)[C@H](O)[C@@H]7O)[C@H](O)[C@H]6O[C@H]6O[C@H](C)[C@@H](O)[C@H](O)[C@@H]6O)CC[C@]5(C)[C@H]4CC[C@]3(C)[C@H]1[C@@H]2C | 2.9 µM | – |
| CCCCCC(=O)O[C@H]1[C@H](O)[C@H](O)[C@@H](O[C@H]2[C@H](O)[C@@H](O[C@H]3O[C@H](C)[C@@H](O)[C@H](O)[C@@H]3O)[C@H](O[C@H]3CC[C@@]4(C)C(=CC[C@H]5[C@@H]6C[C@@H]7O[C@]8(CC[C@@H](C)CO8)[C@@H](C)[C@@H]7[C@@]6(C)CC[C@@H]54)C3)O[C@@H]2CO)O[C@@H]1C | 2.2 µM | – |
| CC(=O)OC[C@H]1O[C@@H](O[C@H]2CC[C@@]3(C)C(=CC[C@H]4[C@@H]5C[C@@H]6O[C@]7(CC[C@@H](C)CO7)[C@@H](C)[C@@H]6[C@@]5(C)CC[C@@H]43)C2)[C@H](O[C@@H]2O[C@@H](C)[C@H](OC(C)=O)[C@@H](O)[C@H]2O)[C@@H](O)[C@@H]1O | > 75 µM | hemolysis % ([4]; erythrocyte): 8% |
| CCCC(=O)O[C@H]1[C@H](O)[C@H](O)[C@@H](O[C@H]2[C@H](O)[C@@H](O[C@H]3O[C@H](C)[C@@H](O)[C@H](O)[C@@H]3O)[C@H](O[C@H]3CC[C@@]4(C)C(=CC[C@H]5[C@@H]6C[C@@H]7O[C@]8(CC[C@@H](C)CO8)[C@@H](C)[C@@H]7[C@@]6(C)CC[C@@H]54)C3)O[C@@H]2CO)O[C@@H]1C | 2.8 µM | – |
| CC(=O)OC[C@H]1O[C@H](O[C@H]2[C@H](O)[C@@H](O[C@H]3O[C@H](C)[C@@H](O)[C@H](O)[C@@H]3O)[C@H](O[C@H]3CC[C@@]4(C)C(=CC[C@H]5[C@@H]6C[C@@H]7O[C@]8(CC[C@@H](C)CO8)[C@@H](C)[C@@H]7[C@@]6(C)CC[C@@H]54)C3)O[C@@H]2CO)[C@@H](O)[C@@H]1OC(C)=O | 2.7 µM | – |
| C[C@@H]1CC[C@@]2(OC1)O[C@H]1C[C@H]3[C@@H]4CC=C5C[C@@H](O[C@@H]6O[C@H](CO)[C@@H](O[C@H]7O[C@H](C)[C@@H](OCCN)[C@H](O)[C@@H]7O)[C@H](O)[C@H]6O[C@H]6O[C@H](C)[C@@H](O)[C@H](O)[C@@H]6O)CC[C@]5(C)[C@H]4CC[C@]3(C)[C@H]1[C@@H]2C | 2.6 µM | – |
| C[C@@H]1CC[C@@]2(OC1)O[C@H]1C[C@H]3[C@@H]4CC=C5C[C@@H](O[C@@H]6O[C@H](CO)[C@@H](O[C@H]7O[C@H](C)[C@@H](OCCNC(=O)CCCCl)[C@H](O)[C@@H]7O)[C@H](O)[C@H]6O[C@H]6O[C@H](C)[C@@H](O)[C@H](O)[C@@H]6O)CC[C@]5(C)[C@H]4CC[C@]3(C)[C@H]1[C@@H]2C | 3.8 µM | – |
| C[C@@H]1CC[C@@]2(OC1)O[C@H]1C[C@H]3[C@@H]4CC=C5C[C@@H](O[C@@H]6O[C@H](CO)[C@@H](O)[C@H](O)[C@H]6O[C@@H]6O[C@@H](C)[C@H](O)[C@@H](O)[C@H]6O)CC[C@]5(C)[C@H]4CC[C@]3(C)[C@H]1[C@@H]2C [OPHIOPOGONIN C] | 21.6 µM | – |
| C[C@@H]1CC[C@@]2(OC1)O[C@H]1C[C@H]3[C@@H]4CC=C5C[C@@H](O[C@@H]6O[C@H](CO)[C@@H](O)[C@H](O[C@@H]7O[C@@H](C)[C@H](O)[C@@H](O)[C@H]7O)[C@H]6O[C@H]6O[C@H](C)[C@@H](O)[C@H](O)[C@@H]6O)CC[C@]5(C)[C@H]4CC[C@]3(C)[C@H]1[C@@H]2C [TACCAOSIDE] | 6.8 µM | – |
| C[C@@H]1CC[C@@]2(OC1)O[C@H]1C[C@H]3[C@@H]4CC=C5C[C@@H](O[C@@H]6O[C@H](CO)[C@@H](O[C@H]7O[C@H](C)[C@@H](OCCNC(=O)c8ccccc8I)[C@H](O)[C@@H]7O)[C@H](O)[C@H]6O[C@H]6O[C@H](C)[C@@H](O)[C@H](O)[C@@H]6O)CC[C@]5(C)[C@H]4CC[C@]3(C)[C@H]1[C@@H]2C | 1.7 µM | – |
| C[C@@H]1CC[C@@]2(OC1)O[C@H]1C[C@H]3[C@@H]4CC=C5C[C@@H](O[C@@H]6O[C@H](CO)[C@@H](O[C@H]7O[C@H](C)[C@@H](OCCNC(=O)c8ccccc8)[C@H](O)[C@@H]7O)[C@H](O)[C@H]6O[C@H]6O[C@H](C)[C@@H](O)[C@H](O)[C@@H]6O)CC[C@]5(C)[C@H]4CC[C@]3(C)[C@H]1[C@@H]2C | 49.3 µM | – |
